Test results from ChEMBL document CHEMBL3244292, “Imidazo[4,5-f]quinolines. 2. A series of 9-(substituted amino)imidazo[4,5-f]quinolines as antitapeworm agents” (1977).
Activity calls are given as the source filed them. No cut-off for these calls is given here.

What was measured:
Assay type in all cases: functional
[1] = test system: Rodentolepis nana; experiment: Anthelmintic activity against Hymenolepis nana infected in mouse assessed as reduction in worm burden at 100 mg/kg administered bid for 3 days relative to control
[2] = test system: Rodentolepis nana; experiment: Anthelmintic activity against Hymenolepis nana infected in mouse assessed as reduction in worm burden at 300 mg/kg administered bid for 3 days relative to control; set-up: scale not given: the % may be the effect or the level left
[3] = test system: Rodentolepis nana; experiment: Anthelmintic activity against Hymenolepis nana infected in mouse assessed as reduction in worm burden at 50 mg/kg administered bid for 3 days relative to control; set-up: scale not given: the % may be the effect or the level left
[4] = test system: Rodentolepis nana; experiment: Anthelmintic activity against Hymenolepis nana infected in mouse assessed as reduction in worm burden at 25 mg/kg administered bid for 3 days relative to control

`Cc1cc(Nc2ccc(N3CCN(C)CC3)c(Cl)c2)c2c(ccc3nc[nH]c32)n1` was tested, and the Activity [1] was “inactive” and the Activity [2] was 100%.
In the case of `Cc1cc(Nc2ccc(-c3ccccc3)cc2)c2c(ccc3nc[nH]c32)n1`, the Activity [1] is reported as 100%, the Activity [3] is reported as 94% and the Activity [4] is reported as “inactive”.
In the case of `CCN(CC)CCOc1ccc(Nc2cc(C)nc3ccc4nc[nH]c4c23)cc1`, the Activity [1] is reported as “inactive” and the Activity [2] is reported as 100%.
`CCOc1ccc(OC)cc1Nc1cc(C)nc2ccc3nc[nH]c3c12` was tested, and the Activity [1] was 100%, the Activity [3] was 76% and the Activity [4] was “inactive”.
For `Cc1cc(Nc2ccc(N3CCCC3)c(Cl)c2)c2c(ccc3nc[nH]c32)n1`, the Activity [1] was 100%, the Activity [3] was 46% and the Activity [4] was “inactive”.
For `Cc1cc(Nc2ccc(C(C)C)cc2)c2c(ccc3nc[nH]c32)n1`, the Activity [1] was 100%, the Activity [3] was 53% and the Activity [4] was “inactive”.
`Cc1cc(Nc2ccc(OC(C)C)c(OC(C)C)c2)c2c(ccc3nc[nH]c32)n1` was tested, and the Activity [1] was 100%, the Activity [3] was 94% and the Activity [4] was “inactive”.
`Cc1cc(Nc2cccc(Nc3ccc(N4CCN(C)CC4)nc3)c2)c2c(ccc3nc[nH]c32)n1` was tested, and the Activity [1] was “inactive” and the Activity [2] was 64%.
`CCOc1ccc(Nc2cc(C)nc3ccc4nc[nH]c4c23)cc1Cl` was tested, and the Activity [1] was 100%, the Activity [3] was 50% and the Activity [4] was “inactive”.
`COc1ccccc1Nc1cc(C)nc2ccc3nc[nH]c3c12` was tested, and the Activity [1] was 66% and the Activity [3] was “inactive”.
For `CCCC(=O)c1ccc(Nc2cc(C)nc3ccc4nc[nH]c4c23)cc1`, the Activity [1] was “inactive” and the Activity [2] was 100%.
For `COc1cc(Cl)ccc1Nc1cc(C)nc2ccc3nc[nH]c3c12`, the Activity [1] was 52% and the Activity [3] was “inactive”.
`CCOc1ccc(OC)c(Nc2cc(C)nc3ccc4nc[nH]c4c23)c1` was tested, and the Activity [1] was 100%, the Activity [3] was 89% and the Activity [4] was “inactive”.
For `CCc1cc(Nc2ccc(OC)cc2)c2c(ccc3nc[nH]c32)n1`, the Activity [1] was 46% and the Activity [3] was “inactive”.
`CSc1ccc(Nc2cc(C)nc3ccc4nc[nH]c4c23)cc1` gave an Activity [1] of 100% and an Activity [3] of 62%.
`CCCCc1ccc(Nc2cc(-c3ccccc3)nc3ccc4nc[nH]c4c23)cc1` was tested, and the Activity [1] was “inactive” and the Activity [2] was 69%.
For `CC(=O)c1cccc(Nc2cc(C)nc3ccc4nc[nH]c4c23)c1`, the Activity [1] was 96% and the Activity [3] was “inactive”.
In the case of `COc1ccc(Nc2cc(-c3ccccc3)nc3ccc4nc[nH]c4c23)cc1`, the Activity [1] is reported as 66% and the Activity [3] is reported as “inactive”.
With `CCC(=O)c1ccc(Nc2cc(C)nc3ccc4nc[nH]c4c23)cc1` the Activity [1] was 75%, the Activity [3] was 78% and the Activity [4] was “inactive”.
With `Cc1cc(Nc2ccc(N3CCCCC3)cc2)c2c(ccc3nc[nH]c32)n1` the Activity [1] was 64%, the Activity [3] was 62% and the Activity [4] was “inactive”.
For `COc1cccc(Nc2cc(C)nc3ccc4[nH]cnc4c23)c1`, the Activity [1] was 73% and the Activity [3] was “inactive”.
For `CCc1ccc(Nc2cc(C)nc3ccc4nc[nH]c4c23)cc1Cl`, the Activity [1] was 100%, the Activity [3] was 93% and the Activity [4] was “inactive”.
`COc1ccc(Nc2cc(C)nc3ccc4nc[nH]c4c23)cc1OC` was tested, and the Activity [1] was 73% and the Activity [3] was “inactive”.
In the case of `Cc1cc(Nc2cccc(Nc3ccccc3)c2)c2c(ccc3nc[nH]c32)n1`, the Activity [1] is reported as “inactive” and the Activity [2] is reported as 81%.
`Cc1cc(Nc2ccc(OCc3ccccc3)cc2)c2c(ccc3nc[nH]c32)n1` gave an Activity [1] of 81% and an Activity [3] of 64%.
`CCC(C)c1ccc(Nc2cc(C)nc3ccc4nc[nH]c4c23)cc1` (configuration not stated) was tested, and the Activity [1] was 100% and the Activity [3] was “inactive”.
In the case of `Cc1cc(Nc2ccc(N3CCCCC3)c(Cl)c2)c2c(ccc3nc[nH]c32)n1`, the Activity [1] is reported as 100%, the Activity [3] is reported as 80% and the Activity [4] is reported as “inactive”.
`Cc1cc(Nc2cccc(C(F)(F)F)c2)c2c(ccc3nc[nH]c32)n1` was tested, and the Activity [1] was “inactive” and the Activity [2] was 100%.
With `Cc1cc(Nc2ccc(Cl)c(C(F)(F)F)c2)c2c(ccc3nc[nH]c32)n1` the Activity [1] was 84%, the Activity [3] was 87% and the Activity [4] was “inactive”.
For `COc1cc(OC)c(Nc2cc(C)nc3ccc4nc[nH]c4c23)cc1Cl`, the Activity [1] was 85%, the Activity [3] was 82% and the Activity [4] was “inactive”.
`Cc1cc(Nc2ccc(C)c([N+](=O)[O-])c2)c2c(ccc3nc[nH]c32)n1` was tested, and the Activity [1] was “inactive” and the Activity [2] was 83%.
`Cc1cc(Nc2ccc(N(C)C)cc2)c2c(ccc3nc[nH]c32)n1` was tested, and the Activity [1] was 100% and the Activity [3] was “inactive”.
`Cc1cc(Nc2ccc(C)c(Cl)c2)c2c(ccc3nc[nH]c32)n1` was tested, and the Activity [1] was 94%, the Activity [3] was 90% and the Activity [4] was “inactive”.
For `Cc1cc(Nc2ccc(Oc3ccccc3)cc2)c2c(ccc3nc[nH]c32)n1`, the Activity [1] was 100%, the Activity [3] was 66% and the Activity [4] was “inactive”.
With `CSc1cccc(Nc2cc(C)nc3ccc4nc[nH]c4c23)c1` the Activity [1] was 100% and the Activity [3] was “inactive”.
For `Cc1cc(Nc2cccc3ccccc23)c2c(ccc3nc[nH]c32)n1`, the Activity [1] was 100% and the Activity [3] was “inactive”.
`Cc1cc(Nc2ccc3ccccc3c2)c2c(ccc3nc[nH]c32)n1` was tested, and the Activity [1] was 72% and the Activity [3] was “inactive”.
With `COc1ccc(Nc2cccc(Nc3cc(C)nc4ccc5nc[nH]c5c34)c2)cn1` the Activity [1] was 100%, the Activity [3] was 94% and the Activity [4] was “inactive”.
In the case of `Cc1cc(Nc2ccc3c(c2)OCO3)c2c(ccc3nc[nH]c32)n1`, the Activity [1] is reported as “inactive” and the Activity [2] is reported as 100%.
`Cc1cc(Nc2ccc(Br)cc2)c2c(ccc3nc[nH]c32)n1` was tested, and the Activity [1] was 61% and the Activity [3] was “inactive”.
In the case of `COc1cc(Nc2cc(C)nc3ccc4nc[nH]c4c23)cc(OC)c1OC`, the Activity [1] is reported as 70% and the Activity [3] is reported as “inactive”.
With `Cc1cc(Nc2ccc(F)c(Cl)c2)c2c(ccc3nc[nH]c32)n1` the Activity [1] was 82% and the Activity [3] was “inactive”.
For `CCCCc1ccc(Nc2cc(C)nc3ccc4[nH]cnc4c23)cc1`, the Activity [1] was “inactive” and the Activity [2] was 100%.
With `Cc1cc(Nc2ccccc2)c2c(ccc3nc[nH]c32)n1` the Activity [1] was 40%.
For `Cc1cc(Nc2ccc(/N=N\c3ccccc3)cc2)c2c(ccc3nc[nH]c32)n1`, the Activity [1] was “inactive” and the Activity [2] was 100%.
For `Cc1cc(Nc2cccc(Cl)c2C)c2c(ccc3nc[nH]c32)n1`, the Activity [1] was 100%, the Activity [3] was 94% and the Activity [4] was “inactive”.
For `CCOc1ccc(Nc2cc(C)nc3ccc4nc[nH]c4c23)cc1`, the Activity [1] was 100% and the Activity [3] was “inactive”.
In the case of `Cc1ccc(Nc2cc(C)nc3ccc4nc[nH]c4c23)cc1`, the Activity [1] is reported as “inactive” and the Activity [2] is reported as 100%.
`Cc1cc(Nc2ccc(Cl)cc2C)c2c(ccc3nc[nH]c32)n1` was tested, and the Activity [1] was 100% and the Activity [3] was “inactive”.
For `Cc1ccc(Cl)c(Nc2cc(C)nc3ccc4nc[nH]c4c23)c1`, the Activity [1] was “inactive” and the Activity [2] was 98%.
`COc1ccc(Nc2cc(C)nc3ccc4nc(-c5ccccc5)[nH]c4c23)cc1` was tested, and the Activity [1] was 94% and the Activity [3] was “inactive”.
`CCCCc1ccc(Nc2cc(C)nc3ccc4nc[nH]c4c23)cc1Cl` gave an Activity [1] of 100%, an Activity [3] of 100% and an Activity [4] of 65%.
In the case of `CCN(CC)c1ccc(Nc2cc(C)nc3ccc4nc[nH]c4c23)cc1`, the Activity [1] is reported as 79% and the Activity [3] is reported as “inactive”.
`CCOc1ccc(OCC)c(Nc2cc(C)nc3ccc4nc[nH]c4c23)c1` was tested, and the Activity [1] was 100%, the Activity [3] was 100% and the Activity [4] was “inactive”.
With `COc1ccc(CNc2cccc(Nc3cc(C)nc4ccc5nc[nH]c5c34)c2)cc1` the Activity [1] was “inactive” and the Activity [2] was 60%.
With `Cc1cc(Nc2ccc(N(C)C)c(Cl)c2)c2c(ccc3nc[nH]c32)n1` the Activity [1] was 71% and the Activity [3] was “inactive”.
In the case of `CCCCOc1ccc(Nc2cc(C)nc3ccc4nc[nH]c4c23)cc1OCCCC`, the Activity [1] is reported as 100%, the Activity [3] is reported as 95% and the Activity [4] is reported as “inactive”.
With `Cc1cc(Nc2ccccc2-c2ccccc2)c2c(ccc3nc[nH]c32)n1` the Activity [1] was “inactive” and the Activity [2] was 100%.
With `Cc1cc(Nc2ccc(I)cc2)c2c(ccc3nc[nH]c32)n1` the Activity [1] was 84% and the Activity [3] was “inactive”.
With `COc1ccc(OC)c(Nc2cc(C)nc3ccc4nc[nH]c4c23)c1` the Activity [1] was 100% and the Activity [3] was “inactive”.
In the case of `Cc1cc(Nc2cccc(N(C)C)c2)c2c(ccc3nc[nH]c32)n1`, the Activity [1] is reported as 100%, the Activity [3] is reported as 87% and the Activity [4] is reported as “inactive”.
`CCCCOc1ccc(Nc2cc(C)nc3ccc4[nH]cnc4c23)cc1` was tested, and the Activity [1] was “inactive” and the Activity [2] was 100%.
`CCCCCOc1ccc(Nc2cc(C)nc3ccc4nc[nH]c4c23)cc1OCCCCC` was tested, and the Activity [1] was 63% and the Activity [3] was “inactive”.
With `COc1ccc(Nc2cc(C)nc3ccc4nc(C)[nH]c4c23)cc1` the Activity [1] was “inactive” and the Activity [2] was 100%.
In the case of `CCOc1cc(OCC)c(OCC)cc1Nc1cc(C)nc2ccc3nc[nH]c3c12`, the Activity [1] is reported as 89%, the Activity [3] is reported as 80% and the Activity [4] is reported as “inactive”.
`CCOc1ccc(Nc2cc(C)nc3ccc4nc[nH]c4c23)cc1OCC` was tested, and the Activity [1] was 100%, the Activity [3] was 84% and the Activity [4] was “inactive”.
`Cc1cc(Nc2cccc(Nc3ccc(N4CCCCC4)nc3)c2)c2c(ccc3nc[nH]c32)n1` was tested, and the Activity [1] was “inactive” and the Activity [2] was 100%.
`CSc1ccccc1Nc1cc(C)nc2ccc3nc[nH]c3c12` was tested, and the Activity [1] was “inactive” and the Activity [2] was 93%.
`COc1ccc(Nc2cc(C)nc3ccc4nc[nH]c4c23)cc1` was tested, and the Activity [1] was 64% and the Activity [3] was “inactive”.
For `CCOc1cc(Nc2cc(C)nc3ccc4nc[nH]c4c23)c(OCC)cc1Cl`, the Activity [1] was 100%, the Activity [3] was 100% and the Activity [4] was “inactive”.
For `Cc1cc(Nc2ccc(Cl)c(Cl)c2)c2c(ccc3nc[nH]c32)n1`, the Activity [1] was 65% and the Activity [3] was “inactive”.
With `Cc1cc(Nc2ccc(N3CCN(C)CC3)cc2)c2c(ccc3nc[nH]c32)n1` the Activity [1] was “inactive” and the Activity [2] was 80%.
